Laboratory results: ChEMBL document CHEMBL4385605, “Synthesis and Structure-Affinity Relationships of Spirocyclic Benzopyrans with Exocyclic Amino Moiety” (J Med Chem, 2019)
Activity calls are given as the source filed them. No cut-off for these calls is given here.

How the values were obtained:
[1] = target: Sigma non-opioid intracellular receptor 1 (Cavia porcellus, UniProt Q60492); test: Displacement of [3H](+)-pentazocine from sigma 1 receptor in guinea pig brain cortex membranes after 120 mins by scintillation counting analysis; type: cell membranes
[2] = target: Sigma intracellular receptor 2 (Homo sapiens, UniProt Q5BJF2); test: Displacement of [3H]-di-o-tolylguanidine from sigma2 receptor in human RT4 cell membranes incubated for 120 mins in the presence of sigma1 receptor ligand (+)-pentazocine by scintillation counting method
[3] = target: Delta-type opioid receptor (Rattus norvegicus, UniProt P33533); test: Displacement of [3H]DPDPE from delta opioid receptor in rat membranes after 120 mins by scintillation counting analysis; type: cell membranes
[4] = target: Kappa-type opioid receptor (Cavia porcellus) (UniProt P41144); test: Displacement of [3H]U69,593 from kappa opioid receptor in guinea pig brain membrane at 1 uM after 120 mins by scintillation counting analysis relative to control; type: cell membranes
[5] = target: T1, Sigma intracellular receptor 2 (Rattus norvegicus, UniProt Q5U3Y7); test: Displacement of [3H]-di-o-tolylguanidine from sigma2 receptor in rat liver membranes incubated for 120 mins in the presence of sigma1 receptor ligand (+)-pentazocine by scintillation counting method; type: cell membranes
T1 sequence (Q5U3Y7 whole entry): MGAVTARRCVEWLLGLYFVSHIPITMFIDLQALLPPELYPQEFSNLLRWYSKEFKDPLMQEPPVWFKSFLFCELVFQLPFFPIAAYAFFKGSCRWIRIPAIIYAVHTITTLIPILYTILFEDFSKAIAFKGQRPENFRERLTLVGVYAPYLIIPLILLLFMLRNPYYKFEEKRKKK

[6] = Selectivity ratio of Ki for displacement of [3H]DTG from sigma2 receptor in rat liver membranes to Ki for displacement of (+)-[3H]pentazocine from sigma 1 receptor in guinea pig brain cortex membranes; type: cell membranes
[7] = target: Mu-type opioid receptor (Cavia porcellus) (UniProt P97266); test: Displacement of [3H]DAMGO from mu opioid receptor in guinea pig brain membranes at 1 uM after 120 mins by scintillation counting analysis relative to control; type: cell membranes
[8] = target: Delta-type opioid receptor (Rattus norvegicus) (UniProt P33533); test: Displacement of [3H]DPDPE from delta opioid receptor in rat membrane at 1 uM after 120 mins by scintillation counting analysis relative to control; type: cell membranes
Sus scrofa = organism: Sus scrofa; test: Displacement of [3H]-(+)-MK-801 from PCP binding site of NMDA receptor in pig brain cortex membranes up to 1 uM after 120 mins by scintillation counting analysis; type: cell membranes
[9] = target: Kappa-type opioid receptor (Cavia porcellus, UniProt P41144); test: Displacement of [3H]U69,593 from kappa opioid receptor in guinea pig brain membrane after 120 mins by scintillation counting analysis; type: cell membranes
Mu-type opioid receptor = Mu-type opioid receptor (Cavia porcellus, UniProt P97266); test: Displacement of [3H]DAMGO from mu opioid receptor in guinea pig brain membranes after 120 mins by scintillation counting analysis; type: cell membranes
Sequence of Mu-type opioid receptor (P97266 whole entry): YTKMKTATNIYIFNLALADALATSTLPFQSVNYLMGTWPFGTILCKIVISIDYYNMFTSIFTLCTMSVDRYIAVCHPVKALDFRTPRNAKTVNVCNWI

Sequence of Kappa-type opioid receptor (Cavia porcellus) (P41144 whole entry): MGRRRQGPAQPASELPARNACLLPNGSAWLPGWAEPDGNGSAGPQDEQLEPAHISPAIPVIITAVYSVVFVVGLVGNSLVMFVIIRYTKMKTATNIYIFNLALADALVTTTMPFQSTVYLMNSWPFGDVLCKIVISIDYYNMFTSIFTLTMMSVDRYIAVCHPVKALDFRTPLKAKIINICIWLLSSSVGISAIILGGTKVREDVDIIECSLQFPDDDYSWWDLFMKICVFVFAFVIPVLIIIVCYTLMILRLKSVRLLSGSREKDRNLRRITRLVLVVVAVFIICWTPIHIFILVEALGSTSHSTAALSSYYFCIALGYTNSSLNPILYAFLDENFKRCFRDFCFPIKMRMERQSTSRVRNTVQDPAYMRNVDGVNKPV
Sequence of Kappa-type opioid receptor (P41144 whole entry): as above
Sequence of Sigma non-opioid intracellular receptor 1 (Q60492 whole entry): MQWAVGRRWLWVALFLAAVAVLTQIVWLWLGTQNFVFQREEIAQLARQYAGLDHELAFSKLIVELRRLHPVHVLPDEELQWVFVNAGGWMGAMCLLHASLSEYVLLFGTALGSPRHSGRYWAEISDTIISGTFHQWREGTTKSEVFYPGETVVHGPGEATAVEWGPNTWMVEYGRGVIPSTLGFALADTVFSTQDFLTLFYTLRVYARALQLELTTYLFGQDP
Sequence of Mu-type opioid receptor (Cavia porcellus) (P97266 whole entry): as the sequence (P97266 whole entry) above
Sequence of Sigma intracellular receptor 2 (Homo sapiens, UniProt Q5BJF2) (Q5BJF2 whole entry): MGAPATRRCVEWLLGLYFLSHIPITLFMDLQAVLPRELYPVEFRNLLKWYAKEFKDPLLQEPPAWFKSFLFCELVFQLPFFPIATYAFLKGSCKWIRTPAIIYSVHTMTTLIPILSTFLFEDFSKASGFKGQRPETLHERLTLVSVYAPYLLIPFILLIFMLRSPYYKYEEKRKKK
Sequence of Delta-type opioid receptor (P33533 whole entry): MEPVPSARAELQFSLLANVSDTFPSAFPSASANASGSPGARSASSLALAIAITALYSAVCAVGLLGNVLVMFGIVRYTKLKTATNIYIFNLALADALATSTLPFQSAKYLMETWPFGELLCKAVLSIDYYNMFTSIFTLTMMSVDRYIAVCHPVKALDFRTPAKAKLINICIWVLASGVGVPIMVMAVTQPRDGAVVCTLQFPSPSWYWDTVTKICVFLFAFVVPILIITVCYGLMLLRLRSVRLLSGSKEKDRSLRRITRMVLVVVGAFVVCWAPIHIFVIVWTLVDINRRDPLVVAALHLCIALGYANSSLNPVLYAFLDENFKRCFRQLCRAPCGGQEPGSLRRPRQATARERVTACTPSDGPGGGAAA
Sequence of Delta-type opioid receptor (Rattus norvegicus) (P33533 whole entry): as above

Row | Ki [1] [nM] | Ki [2] [nM] | Ki [3] [nM] | inhibition [4] [%] | Ki [5] [nM] | Ratio Ki [6] | inhibition [7] [%] | inhibition [8] [%] | Activity (Sus scrofa) | Ki [9] [nM] | Ki (Mu-type opioid receptor) [nM] | SMILES
1 | 8 | 12 | 187 | 23 | 175 | 22 | – | – | – | – | – | CN(CC1CCCCC1)[C@H]1CC[C@@]2(CC1)OCCc1ccccc12
2 | 5.7 | 6.7 | 209 | 18 | 67 | 5 to 10 | 15 | – | – | – | – | C1=Cc2ccccc2[C@]2(CC[C@H](NCC3CCCCC3)CC2)O1
3 | – | 227 | – | 27 | – | – | 20 | 41 | inactive | – | – | COC1Cc2ccccc2[C@]2(CC[C@H](NCc3ccccc3)CC2)O1 (stereo not given in full)
4 | 97 | – | – | 0 | 503 | 5 to 10 | 0 | 20 | – | – | – | c1ccc(CN[C@H]2CC[C@]3(CC2)OCCc2ccccc23)cc1
5 | 3.1 | 5.5 | 565 | 10 | 30 | 5 to 10 | 13 | – | – | – | – | CN(CC1CCCCC1)[C@H]1CC[C@]2(CC1)OCCc1ccccc12
6 | 36 | 46 | 432 | – | 308 | 5 to 10 | – | – | – | 745 | 495 | CCOC1Cc2ccccc2[C@]2(CC[C@H](NCC3CCCCC3)CC2)O1 (stereo not given in full)
7 | 4.9 | 16 | – | – | 81 | 5 to 10 | – | 11 | – | – | 163 | CN(CC1CCCCC1)[C@H]1CC[C@@]2(CC1)OC=Cc1ccccc12
8 | 19 | – | 228 | – | 128 | 5 to 10 | – | – | inactive | 96 | 354 | COC1Cc2ccccc2[C@]2(CC[C@@H](NCC3CCCCC3)CC2)O1 (stereo not given in full)
9 | 2.3 | 4.6 | – | – | 33 | 5 to 10 | – | 38 | – | – | 391 | CN(CC1CCCCC1)[C@H]1CC[C@]2(CC1)OC=Cc1ccccc12
10 | 15 | 93 | – | 24 | 361 | 24 | – | 13 | – | – | 879 | CCOC1Cc2ccccc2[C@]2(CC[C@@H](N(C)CC3CCCCC3)CC2)O1 (stereo not given in full)
11 | 50 | – | 655 | – | 751 | 5 to 10 | – | – | – | 1140 | 768 | COC1O[C@]2(CC[C@@H](NCc3ccccc3)CC2)c2ccccc21 (stereo not given in full)
12 | 19 | 39 | 114 | – | 133 | 5 to 10 | – | – | – | 506 | 273 | COC1O[C@]2(CC[C@H](NCC3CCCCC3)CC2)c2ccccc21 (stereo not given in full)
13 | 15 | 8 | 178 | – | 99 | 5 to 10 | – | – | – | 236 | 114 | c1ccc2c(c1)CCO[C@]21CC[C@H](NCC2CCCCC2)CC1
14 | 18 | 33 | – | 16 | 84 | 5 to 10 | – | 11 | – | – | 841 | c1ccc2c(c1)CCO[C@]21CC[C@@H](NCC2CCCCC2)CC1
15 | 183 | 16 | 185 | – | 161 | 5 to 10 | – | – | – | 85 | 185 | CCOC1Cc2ccccc2[C@]2(CC[C@@H](NCC3CCCCC3)CC2)O1 (stereo not given in full)
16 | 8.1 | 14 | 356 | 18 | 42 | 5 to 10 | – | – | – | – | 297 | CCOC1Cc2ccccc2[C@]2(CC[C@H](N(C)CC3CCCCC3)CC2)O1 (stereo not given in full)
17 | 12 | 7 | 479 | – | 53 | 5 to 10 | – | – | – | 604 | 258 | C1=Cc2ccccc2[C@]2(CC[C@@H](NCC3CCCCC3)CC2)O1
18 | 8 | 9.4 | 254 | – | 164 | 21 | – | – | – | 639 | 231 | COC1O[C@]2(CC[C@H](N(C)CC3CCCCC3)CC2)c2ccccc21 (stereo not given in full)
19 | 20 | 11 | 143 | 23 | 52 | 5 to 10 | – | – | – | – | 501 | COC1O[C@]2(CC[C@@H](NCC3CCCCC3)CC2)c2ccccc21 (stereo not given in full)
20 | 5.8 | – | – | 28 | 101 | 5 to 10 | – | 33 | inactive | – | 462 | COC1Cc2ccccc2[C@]2(CC[C@H](NCC3CCCCC3)CC2)O1 (stereo not given in full)
21 | 8.2 | 7.6 | 559 | 0 | 70 | 5 to 10 | 16 | – | – | – | – | COC1O[C@]2(CC[C@@H](N(C)CC3CCCCC3)CC2)c2ccccc21 (stereo not given in full)
